Experimental data from US8404720B2, “Aryl sulfonamide amine compounds and their use as 5-HT6 ligands” (Suven Life Sciences Limited, priority 2008, dated 2013).

tested on: not given; experiment: not given; conditions: not given

Compound | melting point [°C]
COc1ccc(NS(=O)(=O)c2ccccc2Br)cc1N(C)C1CCN(C)CC1 | 119.2 to 121.3

biological target: Human 5-HT6 Receptor (Homo sapiens, UniProt P50406); experiment: Binding Assay for Human 5-HT6 Receptor ([3H]LSD radioligand); conditions: 10 nM test compound; [3H]LSD 1.5 nM; human recombinant receptor in HEK293 cells
Sequence (P50406 whole entry): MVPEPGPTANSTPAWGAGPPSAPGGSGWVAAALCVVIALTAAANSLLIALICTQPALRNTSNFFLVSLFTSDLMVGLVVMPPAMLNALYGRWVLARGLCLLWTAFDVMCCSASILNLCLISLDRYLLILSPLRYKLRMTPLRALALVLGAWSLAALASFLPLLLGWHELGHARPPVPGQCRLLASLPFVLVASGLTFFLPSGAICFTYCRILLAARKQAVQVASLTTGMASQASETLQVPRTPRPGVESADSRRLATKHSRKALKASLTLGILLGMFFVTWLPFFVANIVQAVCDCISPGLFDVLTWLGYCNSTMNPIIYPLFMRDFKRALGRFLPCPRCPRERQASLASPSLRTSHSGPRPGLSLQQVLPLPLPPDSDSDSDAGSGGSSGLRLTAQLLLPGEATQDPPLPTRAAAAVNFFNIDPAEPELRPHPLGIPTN

Compound | % Inhibition at 10 nM [%]
CN1CCC(Nc2cccc(NS(=O)(=O)c3ccccc3Br)c2)CC1 [Example 11, 2-Bromo-N-[3-(1-methylpiperidin-4-ylamino)phenyl] benzenesulfonamide] | 8.56

same assay, conditions: 100 nM test compound; [3H]LSD 1.5 nM; human recombinant receptor in HEK293 cells

Compound | % Inhibition at 100 nM [%]
Cc1ccc(S(=O)(=O)Nc2ccc(C)c(NC3CCN(C)CC3)c2)cc1 [Example 18, 4-Methyl-N-[4-Methyl-3-(1-Methylpiperidin-4-ylamino)phenyl] benzenesulfonamide] | 63.42
CN1CCC(Nc2cccc(NS(=O)(=O)c3ccccc3Br)c2)CC1 [Example 11, 2-Bromo-N-[3-(1-methylpiperidin-4-ylamino)phenyl] benzenesulfonamide] | 64.11

same assay, conditions: 1000 nM test compound; [3H]LSD 1.5 nM; human recombinant receptor in HEK293 cells

Compound | % Inhibition at 1000 nM [%]
Cc1ccc(S(=O)(=O)Nc2ccc(C)c(NC3CCN(C)CC3)c2)cc1 [Example 18, 4-Methyl-N-[4-Methyl-3-(1-Methylpiperidin-4-ylamino)phenyl] benzenesulfonamide] | 92.37
CN1CCC(Nc2cccc(NS(=O)(=O)c3ccccc3Br)c2)CC1 [Example 11, 2-Bromo-N-[3-(1-methylpiperidin-4-ylamino)phenyl] benzenesulfonamide] | 94.73
